± gives the standard deviation of the averaged measurements.
Assays:
Assay in all cases: surviving fraction relative to DMSO-only wells; higher = less growth inhibition
Conditions in all cases: exposure time: 5 days
[1] = compound: C=CCn1c(=O)c2cnc(Nc3ccc(N4CCN(C)CC4)cc3)nc2n1-c1cccc(C(C)(C)O)n1 [MK-1775]
Method in brief: (§1)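 Viability was scored with CellTiter-Glo luminescence and normalised to the median of DMSO-only wells as surviving fraction. Beforehand, log-phase tumour cell lines were seeded at 250–500 cells per well in 384-well plates, allowed 24 hours, and exposed continuously for five days to inhibitors at 0.5, 1, 5, 10, 50, 100, 500 and 1000 nM. Only lines whose three screens gave replicate Pearson r >0.7 and median Z' >0.3 were kept.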

[2] = compound: CC/C(=C(\c1ccc(O)cc1)c1ccc(OCCN(C)C)cc1)c1ccccc1 [AFIMOXIFENE]
Method in brief: as §1

[3] = compound: CCc1cc(Nc2nccc(-c3c(-c4ccc(OC)c(C(=O)Nc5c(F)cccc5F)c4)nc4ccccn34)n2)c(OC)cc1N1CCC(N2CCN(S(C)(=O)=O)CC2)CC1
Method in brief: as §1

[4] = compound: COc1cc2nccc(Oc3ccc(NC(=O)C4(C(=O)Nc5ccc(F)cc5)CC4)cc3)c2cc1OC [CABOZANTINIB]
Method in brief: as §1

[5] = compound: COc1cc2nccc(Oc3ccc(NC(=O)NC4CC4)c(Cl)c3)c2cc1C(N)=O [LENVATINIB]
Method in brief: as §1

[6] = compound: COc1ccc(-c2cc3c(C)nc(N)nc3n([C@H]3CC[C@H](OCCO)CC3)c2=O)cn1
Method in brief: as §1

[7] = compound: C[C@@H]1CN(CC(=O)Nc2ccc3c(c2)Cc2cccc(-c4cc(=O)cc(N5CCOCC5)o4)c2S3)C[C@H](C)O1
Method in brief: as §1

[8] = compound: C[C@H](CN(C)C)Oc1nc(Nc2cc3cccc(Cl)c3cn2)cnc1C#N
Method in brief: as §1

[9] = compound: Cc1c(N)nc([C@H](CC(N)=O)NC[C@H](N)C(N)=O)nc1C(=O)N[C@H](C(=O)N[C@H](C)[C@@H](O)[C@H](C)C(=O)N[C@H](C(=O)NCCc1nc(-c2nc(C(=O)NCCC[S+](C)C)cs2)cs1)[C@@H](C)O)[C@@H](OC1OC(CO)C(O)C(O)C1OC1OC(CO)C(O)C(OC(N)=O)C1O)c1cnc[nH]1 [BLEOMYCIN]
Method in brief: as §1

[10] = compound: Cc1ccc(NC(=O)c2ccc(CN3CCN(C)CC3)cc2)cc1Nc1nccc(-c2cccnc2)n1 [IMATINIB]
Method in brief: as §1

[11] = compound: Cc1cn(-c2cc(NC(=O)c3ccc(C)c(Nc4nccc(-c5cccnc5)n4)c3)cc(C(F)(F)F)c2)cn1 [NILOTINIB]
Method in brief: as §1

[12] = compound: Cn1c(=O)n(-c2ccc(C(C)(C)C#N)cc2)c2c3cc(-c4cnc5ccccc5c4)ccc3ncc21 [BEZ-235]
Method in brief: as §1

[13] = compound: Cn1ncnc1[C@H]1c2n[nH]c(=O)c3cc(F)cc(c23)N[C@@H]1c1ccc(F)cc1 [BMN-673]
Method in brief: as §1

[14] = compound: O=C(CCCCCCC(=O)Nc1ccccc1)NO [VORINOSTAT]
Method in brief: as §1

In the case of HS57T BREAST, the surviving fraction ([1]; 0.5 nM) is reported as 0.969 ± 0.04, the surviving fraction ([1]; 1 nM) is reported as 1.04 ± 0.017 and the surviving fraction ([1]; 5 nM) is reported as 1.06 ± 0.06. For the same test system, the surviving fraction ([1]; 10 nM) was 0.963 ± 0.029, the surviving fraction ([1]; 50 nM) was 0.597 ± 0.018 and the surviving fraction ([1]; 100 nM) was 0.336 ± 0.041. For the same test system, the surviving fraction ([1]; 500 nM) was 0.134 ± 0.0042, the surviving fraction ([1]; 1000 nM) was 0.098 ± 0.011 and the surviving fraction ([2]; 0.5 nM) was 1.04 ± 0.086. The surviving fraction ([2]; 1 nM) was 1.05 ± 0.088, the surviving fraction ([2]; 5 nM) was 1.12 ± 0.062 and the surviving fraction ([2]; 10 nM) was 1.156 ± 0.011. For the same test system, the surviving fraction ([2]; 50 nM) was 1.12 ± 0.071, the surviving fraction ([2]; 100 nM) was 1.19 ± 0.044 and the surviving fraction ([2]; 500 nM) was 1.09 ± 0.038. For the same test system, the surviving fraction ([2]; 1000 nM) was 1.08 ± 0.057, the surviving fraction ([3]; 0.5 nM) was 0.949 ± 0.082 and the surviving fraction ([3]; 1 nM) was 1.01 ± 0.063. For the same test system, the surviving fraction ([3]; 5 nM) was 1.05 ± 0.021, the surviving fraction ([3]; 10 nM) was 1.05 ± 0.018 and the surviving fraction ([3]; 50 nM) was 1.02 ± 0.052. For the same test system, the surviving fraction ([3]; 100 nM) was 1.06 ± 0.085, the surviving fraction ([3]; 500 nM) was 0.992 ± 0.036 and the surviving fraction ([3]; 1000 nM) was 0.945 ± 0.024. It also gave a surviving fraction ([4]; 0.5 nM) of 0.884 ± 0.062, a surviving fraction ([4]; 1 nM) of 0.87 ± 0.07 and a surviving fraction ([4]; 5 nM) of 0.961 ± 0.024. The surviving fraction ([4]; 10 nM) was 0.983 ± 0.04, the surviving fraction ([4]; 50 nM) was 1.01 ± 0.037 and the surviving fraction ([4]; 100 nM) was 0.972 ± 0.078. For the same test system, the surviving fraction ([4]; 500 nM) was 0.894 ± 0.066, the surviving fraction ([4]; 1000 nM) was 0.888 ± 0.034 and the surviving fraction ([5]; 0.5 nM) was 1.04 ± 0.027. The surviving fraction ([5]; 1 nM) was 1.01 ± 0.085, the surviving fraction ([5]; 5 nM) was 1.084 ± 0.0086 and the surviving fraction ([5]; 10 nM) was 1.14 ± 0.049. The surviving fraction ([5]; 50 nM) was 1.1 ± 0.042, the surviving fraction ([5]; 100 nM) was 1.09 ± 0.064 and the surviving fraction ([5]; 500 nM) was 0.831 ± 0.029. The surviving fraction ([5]; 1000 nM) was 0.74 ± 0.023, the surviving fraction ([6]; 0.5 nM) was 0.946 ± 0.059 and the surviving fraction ([6]; 1 nM) was 1.01 ± 0.07. The surviving fraction ([6]; 5 nM) was 0.959 ± 0.026, the surviving fraction ([6]; 10 nM) was 0.939 ± 0.033 and the surviving fraction ([6]; 50 nM) was 0.6 ± 0.023. It also gave a surviving fraction ([6]; 100 nM) of 0.429 ± 0.034, a surviving fraction ([6]; 500 nM) of 0.148 ± 0.004 and a surviving fraction ([6]; 1000 nM) of 0.117 ± 0.0076. For the same test system, the surviving fraction ([7]; 0.5 nM) was 1.1 ± 0.058, the surviving fraction ([7]; 1 nM) was 1.05 ± 0.055 and the surviving fraction ([7]; 5 nM) was 1.16 ± 0.017. For the same test system, the surviving fraction ([7]; 10 nM) was 1.1 ± 0.03, the surviving fraction ([7]; 50 nM) was 1.08 ± 0.042 and the surviving fraction ([7]; 100 nM) was 1.08 ± 0.084. The surviving fraction ([7]; 500 nM) was 0.945 ± 0.069, the surviving fraction ([7]; 1000 nM) was 0.87 ± 0.041 and the surviving fraction ([8]; 0.5 nM) was 0.943 ± 0.054. For the same test system, the surviving fraction ([8]; 1 nM) was 0.933 ± 0.048, the surviving fraction ([8]; 5 nM) was 1.04 ± 0.039 and the surviving fraction ([8]; 10 nM) was 1.06 ± 0.041. It also gave a surviving fraction ([8]; 50 nM) of 1.03 ± 0.025, a surviving fraction ([8]; 100 nM) of 0.929 ± 0.057 and a surviving fraction ([8]; 500 nM) of 0.119 ± 0.0095. The surviving fraction ([8]; 1000 nM) was 0.0913 ± 0.011, the surviving fraction ([9]; 0.5 nM) was 0.868 ± 0.026 and the surviving fraction ([9]; 1 nM) was 0.91 ± 0.11. It also gave a surviving fraction ([9]; 5 nM) of 0.9263 ± 0.0091, a surviving fraction ([9]; 10 nM) of 0.918 ± 0.057 and a surviving fraction ([9]; 50 nM) of 0.842 ± 0.032. For the same test system, the surviving fraction ([9]; 100 nM) was 0.723 ± 0.034, the surviving fraction ([9]; 500 nM) was 0.36 ± 0.041 and the surviving fraction ([9]; 1000 nM) was 0.225 ± 0.0065. The surviving fraction ([10]; 1 nM) was 1 ± 0.062, the surviving fraction ([10]; 5 nM) was 1.14 ± 0.016 and the surviving fraction ([10]; 10 nM) was 1.14 ± 0.024. For the same test system, the surviving fraction ([10]; 50 nM) was 1.17 ± 0.069, the surviving fraction ([10]; 100 nM) was 1.09 ± 0.056 and the surviving fraction ([10]; 500 nM) was 1.04 ± 0.034. It also gave a surviving fraction ([10]; 1000 nM) of 1.01 ± 0.093, a surviving fraction ([11]; 0.5 nM) of 1.02 ± 0.12 and a surviving fraction ([11]; 1 nM) of 1.05 ± 0.04. The surviving fraction ([11]; 5 nM) was 1.05 ± 0.066, the surviving fraction ([11]; 10 nM) was 1.06 ± 0.015 and the surviving fraction ([11]; 50 nM) was 0.99 ± 0.038. It also gave a surviving fraction ([11]; 100 nM) of 1.08 ± 0.11, a surviving fraction ([11]; 500 nM) of 0.983 ± 0.03 and a surviving fraction ([11]; 1000 nM) of 0.967 ± 0.064. It also gave a surviving fraction ([12]; 0.5 nM) of 1.08 ± 0.039, a surviving fraction ([12]; 1 nM) of 1.03 ± 0.033 and a surviving fraction ([12]; 5 nM) of 0.916 ± 0.027. It also gave a surviving fraction ([12]; 10 nM) of 0.826 ± 0.016, a surviving fraction ([12]; 50 nM) of 0.335 ± 0.021 and a surviving fraction ([12]; 100 nM) of 0.258 ± 0.0071. The surviving fraction ([12]; 500 nM) was 0.186 ± 0.009, the surviving fraction ([12]; 1000 nM) was 0.181 ± 0.011 and the surviving fraction ([13]; 0.5 nM) was 1.04 ± 0.03. The surviving fraction ([13]; 1 nM) was 0.984 ± 0.037, the surviving fraction ([13]; 5 nM) was 1.04 ± 0.076 and the surviving fraction ([13]; 10 nM) was 1.03 ± 0.076. For the same test system, the surviving fraction ([13]; 50 nM) was 0.969 ± 0.084, the surviving fraction ([13]; 100 nM) was 0.82 ± 0.074 and the surviving fraction ([13]; 500 nM) was 0.619 ± 0.057. The surviving fraction ([13]; 1000 nM) was 0.513 ± 0.04, the surviving fraction ([14]; 0.5 nM) was 0.935 ± 0.066 and the surviving fraction ([14]; 1 nM) was 0.992 ± 0.038. It also gave a surviving fraction ([14]; 5 nM) of 1.01 ± 0.073, a surviving fraction ([14]; 10 nM) of 1.071 ± 0.009 and a surviving fraction ([14]; 50 nM) of 1.04 ± 0.052. It also gave a surviving fraction ([14]; 100 nM) of 0.995 ± 0.056, a surviving fraction ([14]; 500 nM) of 0.804 ± 0.049 and a surviving fraction ([14]; 1000 nM) of 0.475 ± 0.026.

Reference: the supplement of paper PMC6045584
